Tested on: vaginal proteome (human proteins in vaginal fluid)
Assay: MS/MS proteomic analysis of vaginal fluid pools, BV-affected women before (BV) and after rifaximin/placebo treatment: human proteins
Format: in vivo
Procedure: Proteomic analysis was performed on 9 pools of vaginal isolates, grouped according to the status of the BV infection: • H pool (from 41 healthy women); BV pool (from 39 BV-affected women); • A-R pool (from 2 women who were in remission after rifaximin treatment-group A); • A-N pool (from 8 women who were not in remission after rifaximin treatment-group A); • B-R pool (from 5 women who were in remission after rifaximin treatment-group B); • B-N pool (from 5 women who were not in remission after rifaximin treatment-group B); • C-R pool (from 4 women who were in remission after rifaximin treatment-group C); • C-N (from 5 women who were not in remission after rifaximin treatment-group C); • D-N (from 10 women who were not in remission after placebo treatment-group D). Scheme of the vaginal fluids collected for testing the diagnostic method is represented in FIG. 1.
In these figures are reported the peptides in the fractionated pools of healthy women, women affected by BV and peptides of women treated with rifaximin. The treatment with rifaximin was at dosage of 100 mg/day for 5 days; (remission, A-R; no remission, A-N), 25 mg/5 days (remission, B-R; no remission, B-N), 100 mg/2 days (remission, C-R; no remission, C-N), and placebo for 5 days (D-N). Two types of comparisons were carried out: (i) between fractionated pools of proteins from vaginal fluid of healthy women (HF) versus fractionated pool of proteins from vaginal fluid of women affected by bacterial vaginosis (BVF); (ii) between whole pools of proteins from vaginal fluid of women affected by BV treated by administering different doses of rifaximin or placebo before (BV) and after (A-R, A-N, B-R, B-N, C-R, C-N, D-N) treatment. Fractioned pools of proteins are obtained, e.g., by separating the proteins by separation on membrane filtration with different membrane porosity, prior to MS/MS analysis.
Nine volumes of acetone: HCl (10:1) were added to the supernatant of the vaginal rinsing and proteins were precipitated by centrifuging at 12000 g for 10 min. The protein pellet was dissolved in 1 mL of 70% ethanol and the sample was spun at 12000 g for 10 min. One mL of acetone was added and the proteins were further precipitated by centrifugation at 12000 g for 5 min. After removing supernatant, pellet was dried by SpeedVac concentrator (Thermo Savant ISS110, Thermo Fisher Scientific, Waltham, Mass.) and then stored at −20° C.
Protein extract was quantified using the 2-D Quant Kit (GE Healthcare, Uppsala, Sweden) according to the manufacturer's instructions.
Patients who were diagnosed for BV at the study visit V1 were included in a multicentre, double-blind, randomised, placebo-controlled study (EudraCT: 2009-011826-32), that was performed to compare the efficacy of different doses of rifaximin vaginal tablets versus placebo for the treatment of BV. The patients underwent a randomisation visit and were distributed into 4 treatment groups: group A received 100 mg rifaximin vaginal tablet once daily for 5 days (n=10), group B received 25 mg rifaximin vaginal tablet once daily for 5 days (n=10), group C received 100 mg rifaximin vaginal tablet once daily for the first 2 days and placebo vaginal tablet for the remaining 3 days (n=9), group D received placebo vaginal tablet once daily for 5 days (n=10). Study medication was administered intra-vaginally at bedtime. After 7 to 10 days from the end of the therapy a follow-up visit (V3) was performed. Remission was evaluated at V3 according to Amsel's criteria (<3) and Gram stain Nugent score (≦3) (Table 1).
Standardized vaginal rinsings with 2 mL of saline were collected for analysis at V1 and V3 by flushing and re-aspirating the fluid through a 22 Gauge needle in the left, central and right upper vaginal vaults. The vaginal rinsings were subsequently stored at −80° C. until use.
MS/MS analysis was carried out for H and BV pools and for the whole BV, A-R, A-N, B-R, B-N, C-R, C-N and D-N pools containing 50 μg of protein each. […]

For `CO[C@H]1/C=C/O[C@@]2(C)Oc3c(C)c(O)c4c(O)c(c5c(nc6cc(C)ccn65)c4c3C2=O)NC(=O)/C(C)=C\C=C\[C@H](C)[C@H](O)[C@@H](C)[C@@H](O)[C@@H](C)[C@H](OC(C)=O)[C@@H]1C` [rifaximin], the “Ratio: BV/R, Vitamin D-binding protein” value (C-R pool (100 mg × 2 days, in remission) vs BV pool before treatment, vaginal fluid) was 0.0, the “Ratio X/H Sciellin (O95171)” value (pool A-N after treatment) was 0.0 and the “Ratio X/H Semenogelin-2 (Q02383)” value (pool A-N after treatment) was 525.8. For the same compound, the “Ratio X/H Serine protease 27 (Q9BQR3)” value (pool A-N after treatment) was 0.0, the “Ratio X/H Serine/threonine-protein kinase ULK1 (O75385)” value (pool A-N after treatment) was −5.1 and the “Ratio X/H Serotransferrin (P02787)” value (pool A-N after treatment) was 1.6. For the same compound, the “Ratio X/H Serpin B3 (P29508)” value (pool A-N after treatment) was 0.0, the “Ratio X/H Serpin B4 (P48594)” value (pool A-N after treatment) was 0.0 and the “Ratio X/H Serpin B5 (P36952)” value (pool A-N after treatment) was −3.3. The “Ratio X/H Serpin B6 (P35237)” value (pool A-N after treatment) was −2.1, the “Ratio X/H Serpin B9 (P50453)” value (pool A-N after treatment) was −2.6 and the “Ratio X/H Serpin B12 (Q96P63)” value (pool A-N after treatment) was −1.5. For the same compound, the “Ratio X/H Serpin B13 (Q9UIV8)” value (pool A-N after treatment) was 0.0, the “Ratio X/H Serum albumin (P02768)” value (pool A-N after treatment) was −1.5 and the “Ratio X/H Serum paraoxonase/arylesterase 1 (P27169)” value (pool A-N after treatment) was 1.5. For the same compound, the “Ratio X/H Small proline-rich protein 3 (Q9UBC9)” value (pool A-N after treatment) was 3.4, the “Ratio X/H Stanniocalcin-1 (P52823)” value (pool A-N after treatment) was 1.9 and the “Ratio X/H Sulfhydryl oxidase 1 (O00391)” value (pool A-N after treatment) was −1.6. The “Ratio X/H Superoxide dismutase [Cu—Zn] (P00441)” value (pool A-N after treatment) was 0.0, the “Ratio X/H Suprabasin (Q6UWP8)” value (pool A-N after treatment) was 13.5 and the “Ratio X/H Syntenin-1 (O00560)” value (pool A-N after treatment) was 4.4. The “Ratio X/H Talin-1 (Q9Y490)” value (pool A-N after treatment) was 0.0, the “Ratio X/H Tctex1 domain-containing protein 2 (Q8WW35)” value (pool A-N after treatment) was −1.6 and the “Ratio X/H Teneurin-3 (Q9P273)” value (pool A-N after treatment) was 9.7. For the same compound, the “Ratio X/H Thioredoxin (P10599)” value (pool A-N after treatment) was 0.0, the “Ratio X/H Transaldolase (P37837)” value (pool A-N after treatment) was −1.8 and the “Ratio X/H Transmembrane protease serine 11D (O60235)” value (pool A-N after treatment) was −1.8. For the same compound, the “Ratio X/H Transthyretin (P02766)” value (pool A-N after treatment) was 0.0, the “Ratio X/H Tumor protein D54 (O43399)” value (pool A-N after treatment) was 0.0 and the “Ratio X/H UTP--glucose-1-phosphate uridylyltransferase (Q16851)” value (pool A-N after treatment) was 0.0. The “Ratio X/H UV excision repair protein RAD23 homolog B (P54727)” value (pool A-N after treatment) was −2.9, the “Ratio X/H Uronyl 2-sulfotransferase (Q9Y2C2)” value (pool A-N after treatment) was −786.0 and the “Ratio X/H Versican core protein (P13611)” value (pool A-N after treatment) was 0.0. The “Ratio X/H Vinculin (P18206)” value (pool A-N after treatment) was 0.0, the “Ratio X/H Vitamin D-binding protein (P02774)” value (pool A-N after treatment) was 0.0 and the “Ratio X/H Werner syndrome ATP-dependent helicase (Q14191)” value (pool A-N after treatment) was 302.6. For the same compound, the “Ratio X/H Zinc finger protein 185 (O15231)” value (pool A-N after treatment) was 2.2, the “Ratio X/H Zinc finger protein 335 (Q9H4Z2)” value (pool A-N after treatment) was 0.0 and the “Ratio X/H Zinc-alpha-2-glycoprotein (P25311)” value (pool A-N after treatment) was 0.0. The “Ratio X/H Zyxin (Q15942)” value (pool A-N after treatment) was −1.7, the “Ratio X/H Sciellin (O95171)” value (pool A-R after treatment) was 0.0 and the “Ratio X/H Semenogelin-2 (Q02383)” value (pool A-R after treatment) was 1.9. For the same compound, the “Ratio X/H Serine protease 27 (Q9BQR3)” value (pool A-R after treatment) was −1.7, the “Ratio X/H Serine/threonine-protein kinase ULK1 (O75385)” value (pool A-R after treatment) was −2.2 and the “Ratio X/H Serotransferrin (P02787)” value (pool A-R after treatment) was −1.5. The “Ratio X/H Serpin B3 (P29508)” value (pool A-R after treatment) was 3.2, the “Ratio X/H Serpin B4 (P48594)” value (pool A-R after treatment) was 0.0 and the “Ratio X/H Serpin B5 (P36952)” value (pool A-R after treatment) was −7.9. The “Ratio X/H Serpin B6 (P35237)” value (pool A-R after treatment) was 0.0, the “Ratio X/H Serpin B9 (P50453)” value (pool A-R after treatment) was −4.1 and the “Ratio X/H Serpin B12 (Q96P63)” value (pool A-R after treatment) was −2.7. For the same compound, the “Ratio X/H Serpin B13 (Q9UIV8)” value (pool A-R after treatment) was 0.0, the “Ratio X/H Serum albumin (P02768)” value (pool A-R after treatment) was −2.3 and the “Ratio X/H Serum paraoxonase/arylesterase 1 (P27169)” value (pool A-R after treatment) was 0.0. The “Ratio X/H Small proline-rich protein 3 (Q9UBC9)” value (pool A-R after treatment) was 6.6, the “Ratio X/H Stanniocalcin-1 (P52823)” value (pool A-R after treatment) was 3.4 and the “Ratio X/H Sulfhydryl oxidase 1 (O00391)” value (pool A-R after treatment) was 0.0. For the same compound, the “Ratio X/H Superoxide dismutase [Cu—Zn] (P00441)” value (pool A-R after treatment) was −1.8, the “Ratio X/H Suprabasin (Q6UWP8)” value (pool A-R after treatment) was 17.9 and the “Ratio X/H Syntenin-1 (O00560)” value (pool A-R after treatment) was 1.9. For the same compound, the “Ratio X/H Talin-1 (Q9Y490)” value (pool A-R after treatment) was −1.6, the “Ratio X/H Tctex1 domain-containing protein 2 (Q8WW35)” value (pool A-R after treatment) was 1.8 and the “Ratio X/H Teneurin-3 (Q9P273)” value (pool A-R after treatment) was 33.3. The “Ratio X/H Thioredoxin (P10599)” value (pool A-R after treatment) was 2.5, the “Ratio X/H Transaldolase (P37837)” value (pool A-R after treatment) was −1.9 and the “Ratio X/H Transmembrane protease serine 11D (O60235)” value (pool A-R after treatment) was 0.0. The “Ratio X/H Transthyretin (P02766)” value (pool A-R after treatment) was 0.0, the “Ratio X/H Tumor protein D54 (O43399)” value (pool A-R after treatment) was 2.2 and the “Ratio X/H UTP--glucose-1-phosphate uridylyltransferase (Q16851)” value (pool A-R after treatment) was 0.0. For the same compound, the “Ratio X/H UV excision repair protein RAD23 homolog B (P54727)” value (pool A-R after treatment) was −2.8, the “Ratio X/H Uronyl 2-sulfotransferase (Q9Y2C2)” value (pool A-R after treatment) was 2.0 and the “Ratio X/H Versican core protein (P13611)” value (pool A-R after treatment) was 0.0. The “Ratio X/H Vinculin (P18206)” value (pool A-R after treatment) was 0.0, the “Ratio X/H Vitamin D-binding protein (P02774)” value (pool A-R after treatment) was −1.7 and the “Ratio X/H Werner syndrome ATP-dependent helicase (Q14191)” value (pool A-R after treatment) was 331.1. For the same compound, the “Ratio X/H Zinc finger protein 185 (O15231)” value (pool A-R after treatment) was 5.2, the “Ratio X/H Zinc finger protein 335 (Q9H4Z2)” value (pool A-R after treatment) was 0.0 and the “Ratio X/H Zinc-alpha-2-glycoprotein (P25311)” value (pool A-R after treatment) was 0.0.
